Laboratory results from US20060069132A1, “Azolecarboxamide herbicides” (priority 2004, published 2006).

Key:
velvetleaf = test: Test B pre-/postemergence herbicide test; type: in vivo, Abutilon theophrasti; conditions: for Velvetleaf plant response rating: postemergence
Procedure, shortened: (§1)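 Formulation: non-phytotoxic solvent mix with surfactant. Timing: preemergence on seed and postemergence on 2–18 cm plants, applied concurrently. Readout after 13–15 d greenhouse: visual 0–100 control rating against controls.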

Surinam grass = test: Test B pre-/postemergence herbicide test; type: in vivo, Urochloa decumbens; conditions: for Surinam Grass plant response rating: postemergence
Procedure, shortened: as §1

lambsquarters = test: Test B pre-/postemergence herbicide test; type: in vivo, Chenopodium album; conditions: for Lambsquarters plant response rating: postemergence
Procedure, shortened: as §1

[1] = system: small flower umbrella sedge; test: Test B flooded paddy test; type: in vivo, Cyperus difformis; conditions: 1000 g ai/ha, scale 0 to 100 (0 no effect, 100 complete control)
Procedure, shortened: (§2)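 Read-out: visual comparison with controls, scored 0 to 100, where 100 means complete control and 0 no effect. Formulated chemicals were applied postemergence to plants 2–18 cm tall (1- to 4-leaf), or to flooded-paddy plants at the 2-leaf stage, then held 13 to 15 days under glass.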

ducksalad = test: Test B flooded paddy test; type: in vivo, Heteranthera limosa; conditions: 1000 g ai/ha, scale 0 to 100 (0 no effect, 100 complete control)
Procedure, shortened: as §2

cocklebur = test: Test B pre-/postemergence herbicide test; type: in vivo, Xanthium strumarium; conditions: for Cocklebur plant response rating: postemergence, scale 0 (no effect) to 100 (complete control)
Procedure, shortened: (§3)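 Pre: seeds sown, then sprayed. Post: 1–4-leaf plants (2–18 cm) sprayed at the same time. Paddy: flooded, treated at 2-leaf stage. Formulation: non-phytotoxic solvent with surfactant. Greenhouse 13–15 days; visual 0–100 score relative to controls.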

pigweed = test: Test B pre-/postemergence herbicide test; type: in vivo, Amaranthus retroflexus; conditions: for Pigweed plant response rating: postemergence
Procedure, shortened: as §1

rice [2] = test: Test B flooded paddy test; type: in vivo, Oryza sativa; conditions: 1000 g ai/ha, scale 0 to 100 (0 no effect, 100 complete control)
Procedure, shortened: (§4)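 Scale 0–100: zero equals no visible effect, 100 complete control, judged by eye relative to controls. Timing: 13 to 15 days in greenhouse post-treatment. Growth stage at spraying: two leaves (paddy) or one to four leaves, 2–18 cm (postemergence).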

wild oat = test: Test B postemergence herbicide test; type: in vivo, Avena fatua; conditions: postemergence
Procedure, shortened: as §4

giant foxtail = test: Test B pre-/postemergence herbicide test; type: in vivo, Setaria faberi; conditions: for Foxtail, Giant plant response rating: postemergence
Procedure, shortened: as §1

barnyardgrass [3] = test: Test B pre-/postemergence herbicide test; type: in vivo, Echinochloa crus-galli; conditions: for Barnyardgrass plant response rating: postemergence, scale 0 (no effect) to 100 (complete control)
Procedure, shortened: as §3

rice [4] = test: Test B pre-/postemergence herbicide test; type: in vivo, Oryza sativa; conditions: 0 = no effect, 100 = complete control, preemergence
Procedure, shortened: as §1

wheat = test: Test B postemergence herbicide test; type: in vivo, Triticum aestivum; set-up: key to Wheat plant response rating: 0 = no effect, 100 = complete control; conditions: postemergence
Procedure, shortened: as §4

corn = test: Test B pre-/postemergence herbicide test; type: in vivo, Zea mays; conditions: for Corn plant response rating: postemergence
Procedure, shortened: as §1

large crabgrass = test: Test B pre-/postemergence herbicide test; type: in vivo, Digitaria sanguinalis; conditions: for Crabgrass, Large plant response rating: postemergence
Procedure, shortened: as §1

barnyardgrass [5] = test: Test B flooded paddy test; type: in vivo, Echinochloa crus-galli; conditions: 1000 g ai/ha, scale 0 to 100 (0 no effect, 100 complete control)
Procedure, shortened: as §2

blackgrass = test: Test B postemergence herbicide test; type: in vivo, Alopecurus myosuroides; conditions: postemergence, visual rating, scale 0 (no effect) to 100 (complete control)
Procedure, shortened: as §2

morningglory = test: Test B pre-/postemergence herbicide test; type: in vivo, Ipomoea coccinea; conditions: for Morningglory plant response rating: postemergence
Procedure, shortened: as §3

[6] = 125 g ai/ha, 0 = no effect, 100 = complete control, preemergence
[7] = 500 g ai/ha, visual rating, 0 = no effect, 100 = complete control, preemergence
[8] = 125 g ai/ha, visual rating, scale 0 (no effect) to 100 (complete control)
[9] = 500 g ai/ha, scale 0 to 100, 0 is no effect, 100 is complete control

**Q.** For `C#CCNC(=O)c1cncc(NC(=O)c2cc(C(C)(C)C)nn2CC)c1` [Compound 264], which “Velvetleaf plant response rating (0 to 100 scale)” value (velvetleaf; [6]) is on record?
**A.** The value was 0.

**Q.** What about the “Plant response rating, Velvetleaf” value (velvetleaf; [7]) of the same compound?
**A.** The value was 10.

**Q.** And the “Velvetleaf plant response rating” value (velvetleaf; [8])?
**A.** Its value is 0.

**Q.** What about the “Velvetleaf plant response rating” value (velvetleaf; [9]) of the same compound?
**A.** The value was 0.

**Q.** What about the “Surinam Grass plant response rating (0 to 100 scale)” value (Surinam grass; [6]) of the same compound?
**A.** The value was 0.

**Q.** And the “Plant response rating, Surinam Grass” value (Surinam grass; [7])?
**A.** Its value is 10.

**Q.** And the “Surinam Grass plant response rating” value (Surinam grass; [8])?
**A.** The value was 0.

**Q.** What about the “Surinam Grass plant response rating” value (Surinam grass; [9]) of the same compound?
**A.** Its value is 0.

**Q.** What about the “Lambsquarters plant response rating (0 to 100 scale)” value (lambsquarters; [6]) of the same compound?
**A.** The value was 0.

**Q.** What about the “Plant response rating, Lambsquarters” value (lambsquarters; [7]) of the same compound?
**A.** Its value is 100.

**Q.** What about the “Lambsquarters plant response rating” value (lambsquarters; [8]) of the same compound?
**A.** Its value is 0.

**Q.** And the “Lambsquarters plant response rating” value (lambsquarters; [9])?
**A.** Its value is 0.

**Q.** And the “Sedge, Umbrella plant response rating” value [1]?
**A.** Its value is 50.

**Q.** And the “Ducksalad plant response rating” value (ducksalad)?
**A.** Its value is 90.

**Q.** What about the “Cocklebur plant response rating (0 to 100 scale)” value (cocklebur; [6]) of the same compound?
**A.** Its value is 0.

**Q.** And the “Plant response rating, Cocklebur” value (cocklebur; [7])?
**A.** Its value is 0.

**Q.** What about the “Cocklebur plant response rating” value (cocklebur; 125 g ai/ha, visual rating) of the same compound?
**A.** The value was 0.

**Q.** And the “Cocklebur plant response rating” value (cocklebur; 500 g ai/ha, visual rating)?
**A.** The value was 0.

**Q.** And the “Pigweed plant response rating (0 to 100 scale)” value (pigweed; [6])?
**A.** Its value is 0.

**Q.** What about the “Plant response rating, Pigweed” value (pigweed; [7]) of the same compound?
**A.** The value was 100.

**Q.** What about the “Pigweed plant response rating” value (pigweed; [8]) of the same compound?
**A.** Its value is 0.

**Q.** What about the “Pigweed plant response rating” value (pigweed; [9]) of the same compound?
**A.** The value was 0.

**Q.** And the “Rice plant response rating” value (rice [2])?
**A.** Its value is 0.

**Q.** And the “Oat, Wild plant response rating” value (wild oat; [8])?
**A.** Its value is 0.

**Q.** What about the “Oat, Wild plant response rating” value (wild oat; [9]) of the same compound?
**A.** The value was 20.

**Q.** What about the “Foxtail, Giant plant response rating (0 to 100 scale)” value (giant foxtail; [6]) of the same compound?
**A.** Its value is 0.

**Q.** What about the “Plant response rating, Foxtail, Giant” value (giant foxtail; [7]) of the same compound?
**A.** Its value is 10.

**Q.** What about the “Foxtail, Giant plant response rating” value (giant foxtail; [8]) of the same compound?
**A.** The value was 0.

**Q.** And the “Foxtail, Giant plant response rating” value (giant foxtail; [9])?
**A.** The value was 0.

**Q.** And the “Barnyardgrass plant response rating (0 to 100 scale)” value (barnyardgrass [3]; [6])?
**A.** The value was 0.

**Q.** And the “Plant response rating, Barnyardgrass” value (barnyardgrass [3]; [7])?
**A.** Its value is 10.

**Q.** And the “Barnyardgrass plant response rating” value (barnyardgrass [3]; 125 g ai/ha, visual rating)?
**A.** Its value is 0.

**Q.** And the “Barnyardgrass plant response rating” value (barnyardgrass [3]; 500 g ai/ha, visual rating)?
**A.** Its value is 0.

**Q.** And the “Rice plant response rating (0 to 100 scale)” value (rice [4]; 125 g ai/ha)?
**A.** Its value is 0.

**Q.** What about the “Plant response rating, Rice” value (rice [4]; 500 g ai/ha, visual rating) of the same compound?
**A.** Its value is 0.

**Q.** What about the “Wheat plant response rating” value (wheat; [8]) of the same compound?
**A.** The value was 0.

**Q.** What about the “Wheat plant response rating” value (wheat; [9]) of the same compound?
**A.** Its value is 10.

**Q.** What about the “Corn plant response rating (0 to 100 scale)” value (corn; [6]) of the same compound?
**A.** The value was 0.

**Q.** And the “Plant response rating, Corn” value (corn; [7])?
**A.** Its value is 0.

**Q.** And the “Corn plant response rating” value (corn; [8])?
**A.** Its value is 0.

**Q.** And the “Corn plant response rating” value (corn; [9])?
**A.** The value was 0.

**Q.** And the “Crabgrass, Large plant response rating (0 to 100 scale)” value (large crabgrass; [6])?
**A.** The value was 10.

**Q.** What about the “Plant response rating, Crabgrass, Large” value (large crabgrass; [7]) of the same compound?
**A.** Its value is 50.

**Q.** And the “Crabgrass, Large plant response rating” value (large crabgrass; [8])?
**A.** The value was 0.

**Q.** What about the “Crabgrass, Large plant response rating” value (large crabgrass; [9]) of the same compound?
**A.** The value was 0.

**Q.** What about the “Barnyardgrass plant response rating” value (barnyardgrass [5]) of the same compound?
**A.** Its value is 0.

**Q.** What about the “Blackgrass plant response rating” value (blackgrass; 125 g ai/ha) of the same compound?
**A.** Its value is 0.

**Q.** And the “Blackgrass plant response rating” value (blackgrass; 500 g ai/ha)?
**A.** Its value is 20.

**Q.** And the “Morningglory plant response rating (0 to 100 scale)” value (morningglory; [6])?
**A.** Its value is 0.

**Q.** And the “Plant response rating, Morningglory” value (morningglory; [7])?
**A.** The value was 0.

**Q.** And the “Morningglory plant response rating” value (morningglory; [8])?
**A.** Its value is 0.

**Q.** And the “Morningglory plant response rating” value (morningglory; [9])?
**A.** Its value is 0.
